Data reported in publication PMC6874179, “Development of Macrocycle Kinase Inhibitors for ALK2 Using Fibrodysplasia Ossificans Progressiva‐Derived Endothelial Cells” (JBMR Plus, 2019).

Key:
Experiment in all cases: Proqinase Kinase profiling
Type in all cases: biochemical
Settings in all cases: read-out: % inhibition at 100nM
[1] = molecular target: T1, PRKCB1_I (Homo sapiens, UniProt P05771)
T1 construct: purchased DiscoverX

[2] = molecular target: T2, MAP4K5 (Homo sapiens, UniProt Q9Y4K4)
T2 construct: purchased DiscoverX

[3] = molecular target: T3, PDK1 (Homo sapiens, UniProt O15530)
T3 construct: purchased DiscoverX

[4] = molecular target: T4, CAMK4 (Homo sapiens, UniProt Q16566)
T4 construct: purchased DiscoverX

[5] = molecular target: T5, AKT2 (Homo sapiens, UniProt P31751)
T5 construct: purchased DiscoverX

[6] = molecular target: T6, CSNK1G3 (Homo sapiens, UniProt Q9Y6M4)
T6 construct: purchased DiscoverX

[7] = molecular target: T7, PIM3 (Homo sapiens, UniProt Q86V86)
T7 construct: purchased DiscoverX

[8] = molecular target: T8, ABL1_T351I (Homo sapiens, UniProt P00519, T315I)
T8 construct: purchased DiscoverX

[9] = molecular target: T9, AURKA (Homo sapiens, UniProt O14965)
T9 construct: purchased DiscoverX

[10] = molecular target: T10, EGFR_L747-E749del_A750P (Homo sapiens, UniProt P00533, A750P/DEL747-749)
T10 construct: purchased DiscoverX

[11] = molecular target: T11, PTK6 (Homo sapiens, UniProt Q13882)
T11 construct: purchased DiscoverX

[12] = molecular target: T12, MAP3K2 (Homo sapiens, UniProt Q9Y2U5)
T12 construct: purchased DiscoverX

[13] = molecular target: T13, PTK2 (Homo sapiens, UniProt Q05397)
T13 construct: purchased DiscoverX

[14] = molecular target: T14, CDK1_cyclinB (Homo sapiens, UniProt P06493)
T14 construct: purchased DiscoverX

[15] = molecular target: T15, ACVR1 (Homo sapiens, UniProt Q04771)
T15 construct: purchased DiscoverX

[16] = molecular target: T16, ACVR2A (Homo sapiens, UniProt P27037)
T16 construct: T7 phage fusion (or DNA tag for qPCR if made in HEK-293); purchased DiscoverX; host or cells: E. coli (T7 phage) or HEK-293

[17] = molecular target: T17, CSK (Homo sapiens, UniProt P41240)
T17 construct: purchased DiscoverX

[18] = molecular target: T18, CDK4_cyclinD1 (Homo sapiens, UniProt P11802)
T18 construct: purchased DiscoverX

[19] = molecular target: T19, MET_Y1230H (Homo sapiens, UniProt P08581, Y1230H)
T19 construct: purchased DiscoverX

[20] = molecular target: T20, FLT1 (Homo sapiens, UniProt P17948)
T20 construct: purchased DiscoverX

[21] = molecular target: T21, DYRK2 (Homo sapiens, UniProt Q92630)
T21 construct: purchased DiscoverX

[22] = molecular target: T22, CLK1 (Homo sapiens, UniProt P49759)
T22 construct: purchased DiscoverX

[23] = molecular target: T23, SYK (Homo sapiens, UniProt P43405)
T23 construct: purchased DiscoverX

[24] = molecular target: T24, MAP3K7 (Homo sapiens, UniProt O43318)
T24 construct: purchased DiscoverX

[25] = molecular target: T25, PLK3 (Homo sapiens, UniProt Q9H4B4)
T25 construct: purchased DiscoverX

[26] = molecular target: T26, ALK_F1174L (Homo sapiens, UniProt Q9UM73, F1174L)
T26 construct: purchased DiscoverX

[27] = molecular target: T27, HIPK1 (Homo sapiens, UniProt Q86Z02)
T27 construct: purchased DiscoverX

[28] = molecular target: T28, CDK2_cyclinA2 (Homo sapiens, UniProt P24941)
T28 construct: purchased DiscoverX

[29] = molecular target: T29, ABL1_H396P (Homo sapiens, UniProt P00519, H396P)
T29 construct: purchased DiscoverX

[30] = molecular target: T30, MYLK2 (Homo sapiens, UniProt Q9H1R3)
T30 construct: purchased DiscoverX

[31] = molecular target: T31, PRKCI (Homo sapiens, UniProt P41743)
T31 construct: purchased DiscoverX

[32] = molecular target: T32, ABL1_M351T (Homo sapiens, UniProt P00519, M351T)
T32 construct: purchased DiscoverX

[33] = molecular target: T33, MAP3K14 (Homo sapiens, UniProt Q99558)
T33 construct: purchased DiscoverX

[34] = molecular target: T34, EPHA3 (Homo sapiens, UniProt P29320)
T34 construct: purchased DiscoverX

[35] = molecular target: T35, CSNK2A1 (Homo sapiens, UniProt P68400)
T35 construct: purchased DiscoverX

[36] = molecular target: T36, HIPK2 (Homo sapiens, UniProt Q9H2X6)
T36 construct: purchased DiscoverX

[37] = molecular target: T37, PKN1 (Homo sapiens, UniProt Q16512)
T37 construct: purchased DiscoverX

[38] = molecular target: T38, EIF2AK2 (Homo sapiens, UniProt P19525)
T38 construct: purchased DiscoverX

[39] = molecular target: T39, EEF2K (Homo sapiens, UniProt O00418)
T39 construct: purchased DiscoverX

[40] = molecular target: T40, KIT_T670I (Homo sapiens, UniProt P10721, T670I)
T40 construct: purchased DiscoverX

[41] = molecular target: T41, CSF1R (Homo sapiens, UniProt P07333)
T41 construct: purchased DiscoverX

[42] = molecular target: T42, FGFR2 (Homo sapiens, UniProt P21802)
T42 construct: purchased DiscoverX

T11 sequence (Q13882 whole entry): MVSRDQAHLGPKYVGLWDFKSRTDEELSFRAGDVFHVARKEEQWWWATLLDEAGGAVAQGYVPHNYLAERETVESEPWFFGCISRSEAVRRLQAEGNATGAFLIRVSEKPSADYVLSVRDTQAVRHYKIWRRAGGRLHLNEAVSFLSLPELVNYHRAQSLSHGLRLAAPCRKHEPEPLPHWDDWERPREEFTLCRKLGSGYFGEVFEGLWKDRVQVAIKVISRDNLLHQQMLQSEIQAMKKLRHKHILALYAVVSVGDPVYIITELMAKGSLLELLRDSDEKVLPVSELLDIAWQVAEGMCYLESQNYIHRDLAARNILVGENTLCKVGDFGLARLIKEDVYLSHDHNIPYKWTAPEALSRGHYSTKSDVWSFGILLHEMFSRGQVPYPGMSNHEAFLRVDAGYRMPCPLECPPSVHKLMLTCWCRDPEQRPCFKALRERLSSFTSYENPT
T34 sequence (P29320 21-983): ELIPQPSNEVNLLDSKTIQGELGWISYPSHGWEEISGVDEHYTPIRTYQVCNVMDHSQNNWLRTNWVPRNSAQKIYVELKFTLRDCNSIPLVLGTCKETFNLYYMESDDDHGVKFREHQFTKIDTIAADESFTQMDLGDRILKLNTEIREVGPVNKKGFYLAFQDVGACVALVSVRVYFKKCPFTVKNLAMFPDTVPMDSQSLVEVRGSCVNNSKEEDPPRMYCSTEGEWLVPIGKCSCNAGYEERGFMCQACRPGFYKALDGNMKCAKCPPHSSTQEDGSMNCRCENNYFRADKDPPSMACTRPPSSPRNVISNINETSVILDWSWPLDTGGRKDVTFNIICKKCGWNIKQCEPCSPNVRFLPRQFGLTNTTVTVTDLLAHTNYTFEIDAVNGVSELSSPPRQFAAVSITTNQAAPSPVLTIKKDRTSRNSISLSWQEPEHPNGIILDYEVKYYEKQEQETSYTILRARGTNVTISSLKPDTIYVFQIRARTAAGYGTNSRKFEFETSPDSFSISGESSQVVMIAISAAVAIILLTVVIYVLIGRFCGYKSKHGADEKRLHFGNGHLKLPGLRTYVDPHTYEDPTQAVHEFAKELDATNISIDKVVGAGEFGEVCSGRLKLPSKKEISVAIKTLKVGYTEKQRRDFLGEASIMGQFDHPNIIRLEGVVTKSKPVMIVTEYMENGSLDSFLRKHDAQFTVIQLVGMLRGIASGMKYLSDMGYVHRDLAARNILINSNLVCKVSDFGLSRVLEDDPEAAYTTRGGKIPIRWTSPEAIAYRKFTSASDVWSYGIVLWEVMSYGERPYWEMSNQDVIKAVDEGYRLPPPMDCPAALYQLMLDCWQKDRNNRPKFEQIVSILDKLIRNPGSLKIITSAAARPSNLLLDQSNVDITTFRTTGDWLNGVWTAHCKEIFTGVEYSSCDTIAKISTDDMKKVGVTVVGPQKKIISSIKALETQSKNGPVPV
T20 sequence (P17948 27-1338): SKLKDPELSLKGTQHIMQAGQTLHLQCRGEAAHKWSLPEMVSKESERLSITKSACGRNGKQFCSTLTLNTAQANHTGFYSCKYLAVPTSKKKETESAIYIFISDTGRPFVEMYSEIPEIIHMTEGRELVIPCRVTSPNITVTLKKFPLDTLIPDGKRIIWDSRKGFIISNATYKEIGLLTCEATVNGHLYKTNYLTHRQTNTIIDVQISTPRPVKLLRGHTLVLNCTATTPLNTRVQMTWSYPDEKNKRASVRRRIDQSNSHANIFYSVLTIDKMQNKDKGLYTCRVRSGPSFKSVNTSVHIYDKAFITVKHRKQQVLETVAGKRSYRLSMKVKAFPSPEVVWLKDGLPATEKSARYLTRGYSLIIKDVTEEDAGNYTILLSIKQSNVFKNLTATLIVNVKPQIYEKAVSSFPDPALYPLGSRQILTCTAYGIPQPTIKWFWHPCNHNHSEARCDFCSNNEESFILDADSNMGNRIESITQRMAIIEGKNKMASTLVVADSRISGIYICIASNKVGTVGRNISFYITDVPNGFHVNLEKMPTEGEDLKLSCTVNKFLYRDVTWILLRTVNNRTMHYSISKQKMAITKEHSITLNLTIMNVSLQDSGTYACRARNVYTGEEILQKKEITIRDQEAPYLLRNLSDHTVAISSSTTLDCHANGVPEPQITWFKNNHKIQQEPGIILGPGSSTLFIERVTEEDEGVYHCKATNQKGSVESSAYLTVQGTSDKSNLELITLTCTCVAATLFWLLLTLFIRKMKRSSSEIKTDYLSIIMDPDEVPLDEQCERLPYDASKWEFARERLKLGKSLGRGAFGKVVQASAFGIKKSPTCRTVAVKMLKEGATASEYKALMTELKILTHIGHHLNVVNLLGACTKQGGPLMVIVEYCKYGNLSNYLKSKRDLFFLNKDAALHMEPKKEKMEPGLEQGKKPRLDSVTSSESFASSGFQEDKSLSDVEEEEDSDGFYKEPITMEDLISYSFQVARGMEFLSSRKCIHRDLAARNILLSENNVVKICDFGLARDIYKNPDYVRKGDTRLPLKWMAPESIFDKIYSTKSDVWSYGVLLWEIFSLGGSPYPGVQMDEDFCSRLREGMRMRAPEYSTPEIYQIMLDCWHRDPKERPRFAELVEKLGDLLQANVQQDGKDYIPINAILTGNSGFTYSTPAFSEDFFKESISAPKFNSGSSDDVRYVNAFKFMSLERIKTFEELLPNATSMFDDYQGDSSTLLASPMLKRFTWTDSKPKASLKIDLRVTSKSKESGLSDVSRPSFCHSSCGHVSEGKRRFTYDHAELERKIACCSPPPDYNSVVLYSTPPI
T5 sequence (P31751 whole entry): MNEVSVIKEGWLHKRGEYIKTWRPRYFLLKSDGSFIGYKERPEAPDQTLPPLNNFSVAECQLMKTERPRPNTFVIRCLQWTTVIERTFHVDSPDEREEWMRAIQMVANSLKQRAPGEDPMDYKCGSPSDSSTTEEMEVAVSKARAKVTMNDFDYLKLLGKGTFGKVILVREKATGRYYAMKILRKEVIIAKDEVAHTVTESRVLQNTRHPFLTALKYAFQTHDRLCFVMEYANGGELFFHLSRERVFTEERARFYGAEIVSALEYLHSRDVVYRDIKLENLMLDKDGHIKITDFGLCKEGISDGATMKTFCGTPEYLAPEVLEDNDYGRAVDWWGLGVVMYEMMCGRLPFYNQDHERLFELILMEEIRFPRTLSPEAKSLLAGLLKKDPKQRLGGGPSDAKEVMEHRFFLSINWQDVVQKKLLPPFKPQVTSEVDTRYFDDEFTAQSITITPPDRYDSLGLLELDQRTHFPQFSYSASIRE
T33 sequence (Q99558 whole entry): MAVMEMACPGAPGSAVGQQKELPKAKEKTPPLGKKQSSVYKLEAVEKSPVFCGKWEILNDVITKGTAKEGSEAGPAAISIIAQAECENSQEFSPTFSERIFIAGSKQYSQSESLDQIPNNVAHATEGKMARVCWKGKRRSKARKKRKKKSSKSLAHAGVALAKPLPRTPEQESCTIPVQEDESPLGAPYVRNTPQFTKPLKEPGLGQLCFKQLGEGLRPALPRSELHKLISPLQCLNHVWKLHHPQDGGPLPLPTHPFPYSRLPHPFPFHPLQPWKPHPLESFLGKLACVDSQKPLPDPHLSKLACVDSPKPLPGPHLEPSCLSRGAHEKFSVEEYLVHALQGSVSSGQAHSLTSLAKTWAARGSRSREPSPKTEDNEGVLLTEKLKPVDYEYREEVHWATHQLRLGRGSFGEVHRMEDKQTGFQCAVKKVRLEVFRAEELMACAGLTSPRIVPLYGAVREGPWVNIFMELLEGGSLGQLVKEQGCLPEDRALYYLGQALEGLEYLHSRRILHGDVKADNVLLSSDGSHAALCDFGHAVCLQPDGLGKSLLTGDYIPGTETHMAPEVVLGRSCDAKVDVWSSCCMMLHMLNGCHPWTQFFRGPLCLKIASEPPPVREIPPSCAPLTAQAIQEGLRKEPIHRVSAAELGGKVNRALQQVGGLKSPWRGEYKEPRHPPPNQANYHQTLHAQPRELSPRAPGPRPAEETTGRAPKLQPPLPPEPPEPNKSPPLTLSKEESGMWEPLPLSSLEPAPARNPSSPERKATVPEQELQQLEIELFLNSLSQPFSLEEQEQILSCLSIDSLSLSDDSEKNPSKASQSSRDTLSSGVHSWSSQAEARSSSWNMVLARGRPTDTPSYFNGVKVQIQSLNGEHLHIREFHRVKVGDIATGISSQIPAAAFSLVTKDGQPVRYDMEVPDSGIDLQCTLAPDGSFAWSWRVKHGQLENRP
T35 sequence (P68400 whole entry): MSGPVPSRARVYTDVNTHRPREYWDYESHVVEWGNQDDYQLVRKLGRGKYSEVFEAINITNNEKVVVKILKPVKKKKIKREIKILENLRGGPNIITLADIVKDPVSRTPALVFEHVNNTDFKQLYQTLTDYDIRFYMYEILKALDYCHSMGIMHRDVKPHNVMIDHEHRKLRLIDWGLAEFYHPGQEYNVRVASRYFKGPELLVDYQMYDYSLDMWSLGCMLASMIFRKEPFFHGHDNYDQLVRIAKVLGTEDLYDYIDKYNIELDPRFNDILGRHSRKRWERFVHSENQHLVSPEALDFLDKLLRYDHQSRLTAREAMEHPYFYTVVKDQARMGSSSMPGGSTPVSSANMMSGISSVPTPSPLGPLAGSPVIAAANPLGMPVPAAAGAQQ
T16 sequence (P27037 20-513): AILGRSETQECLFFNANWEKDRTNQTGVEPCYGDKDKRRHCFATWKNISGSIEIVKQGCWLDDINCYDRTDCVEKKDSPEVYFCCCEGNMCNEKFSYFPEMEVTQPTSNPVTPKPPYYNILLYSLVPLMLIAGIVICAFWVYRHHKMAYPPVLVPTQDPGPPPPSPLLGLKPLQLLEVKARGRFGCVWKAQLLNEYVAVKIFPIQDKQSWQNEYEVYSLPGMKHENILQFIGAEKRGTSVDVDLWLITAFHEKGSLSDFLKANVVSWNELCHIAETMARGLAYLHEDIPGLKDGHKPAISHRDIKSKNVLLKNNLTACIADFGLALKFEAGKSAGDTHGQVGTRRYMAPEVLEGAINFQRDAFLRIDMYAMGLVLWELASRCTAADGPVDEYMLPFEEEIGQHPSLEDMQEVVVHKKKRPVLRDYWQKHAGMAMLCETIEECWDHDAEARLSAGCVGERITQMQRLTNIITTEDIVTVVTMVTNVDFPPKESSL

SMILES: Clc1cc2cc(c1)-c1cnn3ccc(nc13)NCCOCCO2 [OD36]
- inhibition at 0.1 µM [1]: 7%
- inhibition at 0.1 µM [2]: 18%
- inhibition at 0.1 µM [3]: 4%
- inhibition at 0.1 µM [4]: -4%
- inhibition at 0.1 µM [5]: 2%
- inhibition at 0.1 µM [6]: 3%
- inhibition at 0.1 µM [7]: 25%
- inhibition at 0.1 µM [8]: 9%
- inhibition at 0.1 µM [9]: -7%
- inhibition at 0.1 µM [10]: 2%
- inhibition at 0.1 µM [11]: 46%
- inhibition at 0.1 µM [12]: 7%
- inhibition at 0.1 µM [13]: 18%
- inhibition at 0.1 µM [14]: 9%
- inhibition at 0.1 µM [15]: 95%
- inhibition at 0.1 µM [16]: 15%
- inhibition at 0.1 µM [17]: -4%
- inhibition at 0.1 µM [18]: 8%
- inhibition at 0.1 µM [19]: -3%
- inhibition at 0.1 µM [20]: 20%
- inhibition at 0.1 µM [21]: 2%
- inhibition at 0.1 µM [22]: 7%
- inhibition at 0.1 µM [23]: -1%
- inhibition at 0.1 µM [24]: 3%
- inhibition at 0.1 µM [25]: -4%
- inhibition at 0.1 µM [26]: 8%
- inhibition at 0.1 µM [27]: 8%
- inhibition at 0.1 µM [28]: 4%
- inhibition at 0.1 µM [29]: 21%
- inhibition at 0.1 µM [30]: 23%
- inhibition at 0.1 µM [31]: 11%
- inhibition at 0.1 µM [32]: 16%
- inhibition at 0.1 µM [33]: 10%
- inhibition at 0.1 µM [34]: 12%
- inhibition at 0.1 µM [35]: -7%
- inhibition at 0.1 µM [36]: 16%
- inhibition at 0.1 µM [37]: 16%
- inhibition at 0.1 µM [38]: 9%
- inhibition at 0.1 µM [39]: -9%
- inhibition at 0.1 µM [40]: 9%
- inhibition at 0.1 µM [41]: 16%
- inhibition at 0.1 µM [42]: 8%

SMILES: Cc1cc2cc(c1)-c1cnn3ccc(nc13)NCCNC(=O)CCN(C)C2 [OD52]
- inhibition at 0.1 µM [1]: -5%
- inhibition at 0.1 µM [2]: 19%
- inhibition at 0.1 µM [3]: -7%
- inhibition at 0.1 µM [4]: -23%
- inhibition at 0.1 µM [5]: -9%
- inhibition at 0.1 µM [6]: 2%
- inhibition at 0.1 µM [7]: 10%
- inhibition at 0.1 µM [8]: -15%
- inhibition at 0.1 µM [9]: -6%
- inhibition at 0.1 µM [10]: -9%
- inhibition at 0.1 µM [11]: 0%
- inhibition at 0.1 µM [12]: 14%
- inhibition at 0.1 µM [13]: -1%
- inhibition at 0.1 µM [14]: 6%
- inhibition at 0.1 µM [15]: 90%
- inhibition at 0.1 µM [16]: 14%
- inhibition at 0.1 µM [17]: -6%
- inhibition at 0.1 µM [18]: -9%
- inhibition at 0.1 µM [19]: -20%
- inhibition at 0.1 µM [20]: -4%
- inhibition at 0.1 µM [21]: 9%
- inhibition at 0.1 µM [22]: 6%
- inhibition at 0.1 µM [23]: -2%
- inhibition at 0.1 µM [24]: -6%
- inhibition at 0.1 µM [25]: -8%
- inhibition at 0.1 µM [26]: -6%
- inhibition at 0.1 µM [27]: 0%
- inhibition at 0.1 µM [28]: 0%
- inhibition at 0.1 µM [29]: -12%
- inhibition at 0.1 µM [30]: -4%
- inhibition at 0.1 µM [31]: -17%
- inhibition at 0.1 µM [32]: -7%
- inhibition at 0.1 µM [33]: -23%
- inhibition at 0.1 µM [34]: -20%
- inhibition at 0.1 µM [35]: 3%
- inhibition at 0.1 µM [36]: -2%
- inhibition at 0.1 µM [37]: 5%
- inhibition at 0.1 µM [38]: -1%
- inhibition at 0.1 µM [39]: -13%
- inhibition at 0.1 µM [40]: -23%
- inhibition at 0.1 µM [41]: -1%
- inhibition at 0.1 µM [42]: -6%
